Measured values as given in patent US11298363B2, “Triazolobenzazepines as vasopressin V1a receptor antagonists” (RICHTER GEDEON NYRT., priority 2017, dated 2022).
Marks after values point to notes of the source that are not given here.

Legend:
[1] = target: mouse V1a receptor (Mus musculus, UniProt Q62463); assay: Functional V1a in vivo test: inhibition of oxytocin-induced scratching behaviour; conditions: mice
Method in brief: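 Male NMRI mice received test substance or vehicle, then oxytocin 0.3 mg/kg s.c. Scratching was recorded by LABORAS after 1 h cage habituation. Inhibition was expressed as % between the saline (0%) and vehicle-plus-oxytocin (100%) group means, analysed by ANOVA with Tukey test.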

[2] = target: human vasopressin V2 receptor (Homo sapiens, UniProt P30518); assay: Human vasopressin V2 receptor binding assay on 1321N1 cell line; conditions: 1321N1 cell line; read-out: Ki on hV2 1321N1 cell line
Sequence of human vasopressin V2 receptor (P30518 whole entry): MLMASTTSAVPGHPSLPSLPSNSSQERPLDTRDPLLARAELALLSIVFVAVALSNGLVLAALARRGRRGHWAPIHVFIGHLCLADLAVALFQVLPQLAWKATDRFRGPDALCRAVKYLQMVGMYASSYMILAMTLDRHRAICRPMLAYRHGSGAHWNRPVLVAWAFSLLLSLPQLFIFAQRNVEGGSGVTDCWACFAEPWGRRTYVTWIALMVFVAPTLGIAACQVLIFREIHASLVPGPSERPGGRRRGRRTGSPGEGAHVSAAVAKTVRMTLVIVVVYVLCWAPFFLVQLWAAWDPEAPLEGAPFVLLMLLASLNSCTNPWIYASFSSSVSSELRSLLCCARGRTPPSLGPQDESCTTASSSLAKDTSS
Method: Human Vasopressin V2 Receptor Binding Assay Cells and Radioligand
To determine the final affinity value, the results of at least two independent experiments were taken into account.
Non-specific binding values were determined in the presence of an unlabeled 1.2×10^−6 M (Arg^8)-vasopressin. Samples were incubated in a total volume of 0.55 ml for 90 minutes at 27° C. Membrane-bound and free ligands were separated by filtration through a 0.5% polyethyleneimine-impregnated UniFilter® GF/B™. After drying the filter plates, 40 μl Microscint-20 (Packard) scintillation cocktail was added to the samples. Finally, radioactivity was measured using MicroBeta^2 Microplate Counter (Perkin Elmer).
The radioligand displacement ability of a substance is determined in at least two independent experiments. Specific radioligand binding can be defined as the difference between total and non-specific binding in the presence of a saturation amount of the unlabeled ligand or different concentrations of the substance to be tested. The results are given as a percentage of inhibition of the specific binding achieved in the presence of the substance to be tested.
During fitting, the asymptotes are not fixed. The Ki values (inhibition constant) are given with Cheng-Prusoff equation Ki=IC50/[1+(L/KD)] wherein [L] is the radioligand concentration used in the experiment and [KD] is the affinity of the radioactively labelled ligand for the given receptor. The KD is determined beforehand using the Scatchard curve.

[3] = target: T1, human vasopressin V1a receptor (Homo sapiens, UniProt P37288); assay: Functional assay on human vasopressin V1a receptor expressing cell line (intracellular Ca2+ fluorescence); assay type: cell-based; conditions: 1321N1 cells, (Arg8)-vasopressin at EC80; read-out: IC50 (nM) on hV1a cell line
T1 sequence (P37288 whole entry): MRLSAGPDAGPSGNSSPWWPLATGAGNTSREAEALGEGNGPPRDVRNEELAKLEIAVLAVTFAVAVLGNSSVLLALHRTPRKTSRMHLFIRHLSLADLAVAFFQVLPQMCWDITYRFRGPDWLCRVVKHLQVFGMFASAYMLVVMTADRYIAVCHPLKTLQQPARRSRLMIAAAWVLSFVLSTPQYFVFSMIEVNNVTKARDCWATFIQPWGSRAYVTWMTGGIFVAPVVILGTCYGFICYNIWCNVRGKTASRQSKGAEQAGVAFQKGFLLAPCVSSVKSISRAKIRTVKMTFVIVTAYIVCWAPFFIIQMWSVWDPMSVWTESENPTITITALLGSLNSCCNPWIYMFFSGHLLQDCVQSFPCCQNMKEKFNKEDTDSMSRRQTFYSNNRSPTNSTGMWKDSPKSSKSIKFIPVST

[4] = target: T1, human vasopressin V1a receptor; assay: Human vasopressin V1a receptor binding assay; conditions: 1321N1 cell membranes, [3H]vasopressin; read-out: Ki (nM) on hV1a cell line
Method in brief: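 Ki values come from IC50 via Cheng-Prusoff (KD from prior Scatchard), averaged over at least two independent runs. Human V1a membranes were incubated with radioligand 60 minutes at 27° C., bound ligand collected by filtration; (Arg^8)-vasopressin at 1.2×10^−6 M defined non-specific binding.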

Sequence of mouse V1a receptor (Q62463 whole entry): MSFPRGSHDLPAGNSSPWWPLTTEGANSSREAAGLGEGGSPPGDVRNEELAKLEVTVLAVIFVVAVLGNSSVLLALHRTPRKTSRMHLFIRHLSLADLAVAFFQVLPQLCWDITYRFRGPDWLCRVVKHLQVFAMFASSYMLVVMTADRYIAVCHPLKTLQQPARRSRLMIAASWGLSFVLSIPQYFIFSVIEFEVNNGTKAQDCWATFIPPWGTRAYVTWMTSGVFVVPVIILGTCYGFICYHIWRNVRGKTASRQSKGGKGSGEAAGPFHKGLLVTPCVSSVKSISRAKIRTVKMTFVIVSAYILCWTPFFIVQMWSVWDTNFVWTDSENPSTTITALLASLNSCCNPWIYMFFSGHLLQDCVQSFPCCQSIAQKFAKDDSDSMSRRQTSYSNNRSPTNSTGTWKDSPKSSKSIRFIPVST

inhibition (%) of oxytocin-induced scratching behaviour response ([1]; 10 mg/kg p.o. pretreatment) [%] | Ki [2] [nM] | IC50 [3] [nM] | Ki [4] [nM] | inhibition (%) of oxytocin-induced scratching behaviour response ([1]; after i.p. treatment (table title: 10 mg/kg)) | SMILES
64 | 3050 | 6.8 | 1.3 | – | N[C@@H]1Cc2cc(Cl)ccc2-n2c(nnc2[C@H]2CC[C@H](Oc3ccccn3)CC2)C1 [Example 8, (5R)-8-chloro-1-[trans-4-(pyridin-2-yloxy)cyclohexyl]-5,6-dihydro-4H-[1,2,4]triazolo[4,3-a][1]benzazepine-5-amine]
– | 1190 | 3 | 0.8 | 106* % | CC(=O)NC1Cc2cc(Cl)ccc2-n2c(nnc2[C@H]2CC[C@H](Oc3ccccn3)CC2)C1 (stereo partly drawn) [Example 9, N-{8-chloro-1-[trans-4-(pyridin-2-yloxy)cyclohexyl]-5,6-dihydro-4H-[1,2,4]triazolo[4,3-a][1]benzazepin-5-yl}acetamide]
70 | 662 | 1.2 | 0.6 | – | O=C1Cc2cc(Cl)ccc2-n2c(nnc2[C@H]2CC[C@H](Oc3ccccn3)CC2)C1 [Example 54, 8-chloro-1-[trans-4-(pyrin-2-yloxy)cyclohexyl]-4H-[1,2,4]triazolo[4,3-a][1]benzazepin-5(6H)-one]
91 | 469 | 1.1 | 0.3 | – | OC1Cc2cc(Cl)ccc2-n2c(nnc2[C@H]2CC[C@H](Oc3ccccn3)CC2)C1 (stereo partly drawn) [Example 55, 8-chloro-1-[trans-4-(pyridin-2-yloxy)cyclohexyl]-5,6-dihydro-4H-[1,2,4]triazolo[4,3-a][1]benzazepin-5-ol]
84 | 446 | 1.8 | 0.3 | – | O[C@@H]1Cc2cc(Cl)ccc2-n2c(nnc2[C@H]2CC[C@H](Oc3ccccn3)CC2)C1 [Example 57, (5R)-8-chloro-1-[trans-4-(pyridin-2-yloxy)cyclohexyl]-5,6-dihydro-4H-[1,2,4]triazolo[4,3-a][1]benzazepin-5-ol]
99 | 53 | 1.1 | 0.2 | – | Brc1ccc2c(c1)CC1(Cc3nnc([C@H]4CC[C@H](Oc5ccccn5)CC4)n3-2)OCCO1 [Example 62, 8′-bromo-1′-[trans-4-(pyridin-2-yloxy)cyclohexyl]-4′H,6′H-spiro[1,3-dioxolane-2,5′ [1,2,4]triazolo[4,3-a][1]benzazepine]]
49 | 575 | 1.4 | 0.3 | – | c1ccc(O[C@H]2CC[C@H](c3nnc4n3-c3ccccc3CC3(C4)OCCO3)CC2)nc1 [Example 63, 1′-[trans-4-(pyridin-2-yloxy)cyclohexyl]-4′H,6′H-spiro[1,3-dioxolane-2,5′-[1,2,4]triazolo[4,3-a][1]benzazepine]]
